Measured values as given in ChEMBL document CHEMBL4043261, “Cytotoxic properties of the alkaloid rutaecarpine and its oligocyclic derivatives and chemical modifications to enhance water-solubility” (Bioorg Med Chem Lett, 2017).
Converted amounts (≈) assume the structure as drawn.

What was measured:
HeLa = assay: Cytotoxicity against human HeLa cells by MTT assay; type: functional, cell-based
[1] = Dissociation constant, pka of the compound by potentiometric titration method; type: physicochemical
[2] = Intrinsic solubility of the compound at pH 2 by turbidimetric titration method; type: physicochemical; conditions: buffer, read-out: Intrinsic_solubility
[3] = Aqueous solubility of the compound in phosphate buffered saline at pH 6.8 after 24 hrs by HPLC-UV based shake-flask method; type: physicochemical
[4] = Aqueous solubility of the compound in phosphate buffered saline at pH 7.4 after 24 hrs by HPLC-UV based shake-flask method; type: physicochemical
[5] = Solubility of the compound in minimal essential medium at 1 to 2 mg after 24 hrs in absence of 10% FCS by HPLC-UV based shake-flask method; type: physicochemical; conditions: BLD = below limit of detection
[6] = Solubility of the compound in water; type: physicochemical; conditions: buffer
[7] = Solubility of the compound in minimal essential medium at 1 to 2 mg after 24 hrs in presence of 10% FCS by HPLC-UV based shake-flask method; type: physicochemical; conditions: BLD = below limit of detection
[8] = Aqueous solubility of the compound in deionized water after 24 hrs by HPLC-UV based shake-flask method; type: physicochemical; conditions: buffer
[9] = phosphate buffered saline, pH 6.8
[10] = phosphate buffered saline, pH 7.4

Molecule `CCN(CC)CCCn1c2c(c3ccccc31)CCn1c-2nc2ccc(O)cc2c1=O.Cl` has an EC50 (HeLa) of 9.8 µM, a pKa [1] of 8.94 and a solubility [2] of 53.2 µM. It also gave a solubility thermodynamic at 24 h [3, 9] of 7400 µM and a solubility thermodynamic at 24 h [4, 10] of 1900 µM.

For `O=c1c2ccccc2nc2n1CCc1c-2[nH]c2ccccc12` [RUTAECARPINE], the solubility [5] was “Bld”, the EC50 (HeLa) was 26.1 µM and the solubility [6] was 0.033 µM (≈ 9.48 ng/mL). For the same molecule, the solubility thermodynamic at 24 h ([3]; buffer, pH 6.8, 24 h) was 0.0257 µM (≈ 7.38 ng/mL), the solubility [7] was “Bld” and the solubility [8] was 0.0328 µM (≈ 9.42 ng/mL). It also gave a solubility thermodynamic at 24 h ([4]; buffer, pH 7.4, 24 h) of 0.0271 µM (≈ 7.79 ng/mL).

With `O=c1c2cc(O)ccc2nc2n1CCc1ccccc1-2` the EC50 (HeLa) was 53.9 µM.

In the case of `Cl.O=c1c2cc(OCCCN3CCCCC3)ccc2nc2n1CCc1c-2[nH]c2ccccc12`, the solubility [5] is reported as “Bld”, the EC50 (HeLa) is reported as 16.3 µM and the pKa [1] is reported as 9.36. The solubility [2] was 0.21 µM, the solubility thermodynamic at 24 h [3, 9] was 21.8 µM and the solubility [7] was “Bld”. For the same molecule, the solubility thermodynamic at 24 h [4, 10] was 5.62 µM.

With `O=c1c2sc3ccccc3c2nc2n1CCc1c-2[nH]c2ccccc12` the solubility [5] was “Bld”, the EC50 (HeLa) was 8.4 µM and the solubility [7] was “Bld”.

`Cl.O=c1c2cc(O)ccc2nc2n1CCc1c-2n(CCCN2CCCCC2)c2ccccc12` showed an EC50 (HeLa) of 15.4 µM, a pKa [1] of 8.8 and a solubility [2] of 15.5 µM. The solubility thermodynamic at 24 h [3, 9] was 1710 µM and the solubility thermodynamic at 24 h [4, 10] was 441 µM.

In the case of `O=c1c2ccccc2nc2n1CCc1ccccc1-2`, the EC50 (HeLa) is reported as 64.2 µM.

Molecule `O=c1c2cc(Cl)ccc2nc2n1CCc1c-2[nH]c2ccccc12` has an EC50 (HeLa) of 7.2 µM.

For `O=c1c2sc3ncccc3c2nc2n1CCc1c-2[nH]c2ccccc12`, the EC50 (HeLa) was 22.1 µM.

For `CCN(CC)CCCOc1ccc2nc3n(c(=O)c2c1)CCc1c-3[nH]c2ccccc12.Cl`, the EC50 (HeLa) was 17.1 µM, the pKa [1] was 9.29 and the solubility [2] was 0.7 µM. The solubility thermodynamic at 24 h [3, 9] was 180 µM and the solubility thermodynamic at 24 h [4, 10] was 45.8 µM.

For `COc1cc2nc3n(c(=O)c2cc1OC)CCc1c-3[nH]c2ccccc12`, the solubility [5] was “Bld”, the EC50 (HeLa) was 60.8 µM and the solubility [7] was “Bld”.

`C=C1C(=O)O[C@@H]2C[C@@H](C)[C@@H]3C=CC(=O)[C@@]3(C)[C@@H](O)[C@H]12` [HELENALIN] showed an EC50 (HeLa) of 0.7 µM.

For `O=c1c2cc(Cl)ccc2nc2n1CCc1ccccc1-2`, the solubility [5] was “Bld”, the EC50 (HeLa) was 20.6 µM and the solubility [7] was “Bld”.

In the case of `O=c1c2cc(O)ccc2nc2n1CCc1c-2[nH]c2ccccc12`, the EC50 (HeLa) is reported as 11.3 µM.
